# In US20250296959A1, “B7-H3 TARGETING PEPTIDES AND CONSTRUCTS THEREOF” (Mariana Oncology Inc., priority 2024, published 2025):
# Starred links: 1 amine or outer side, 2 acyl side, 3 side chain; linkers in the order of their positions; H or OH if unused. Positions of bridges follow the written chain, without caps; N, C: chain ends. Non-standard residues stand in square brackets, D forms with d. Residues, ends and D or L forms follow the SMILES beside them. Groups on a side chain read outwards from the residue. *: point of attachment. Ala(piperidin-4-yl) = O=C([C@H](CC1CCN([*:3])CC1)N[*:1])[*:2]; DOTA = O=C(O)CN1CCN(CC(=O)O)CCN(CC(=O)*)CCN(CC(=O)O)CC1; Phe(4-NHCONH2) = NC(=O)Nc1ccc(C[C@H](N)C(=O)O)cc1; X8 = O=C([C@H](C[C@H]1CC[C@@H](O)CC1)N[*:1])[*:2]; Phe(4-COOH) = N[C@@H](Cc1ccc(C(=O)O)cc1)C(=O)O; Trp(5-F) = N[C@@H](Cc1c[nH]c2ccc(F)cc12)C(=O)O; X1 = C[C@@H](c1ccccc1)[C@H](N[*:1])C(=O)[*:2]; Phe(4-F) = N[C@@H](Cc1ccc(F)cc1)C(=O)O; 1Nal = N[C@@H](Cc1cccc2ccccc12)C(=O)O; Ala(4-THP) = N[C@@H](CC1CCOCC1)C(=O)O; AEF = NCCOc1ccc(C[C@H](N)C(=O)O)cc1; Val(3-OH) = CC(C)(O)[C@H](N)C(=O)O; pGlu = O=C1CC[C@@H](C(=O)O)N1; Tle = CC(C)(C)[C@H](N)C(=O)O; hLeu = CC(C)CC[C@H](N)C(=O)O; Nle = CCCC[C@H](N)C(=O)O
# Target: T1, human 4lg B7-H3 (Homo sapiens, UniProt Q5ZPR3)
# T1 sequence (Q5ZPR3 29-534): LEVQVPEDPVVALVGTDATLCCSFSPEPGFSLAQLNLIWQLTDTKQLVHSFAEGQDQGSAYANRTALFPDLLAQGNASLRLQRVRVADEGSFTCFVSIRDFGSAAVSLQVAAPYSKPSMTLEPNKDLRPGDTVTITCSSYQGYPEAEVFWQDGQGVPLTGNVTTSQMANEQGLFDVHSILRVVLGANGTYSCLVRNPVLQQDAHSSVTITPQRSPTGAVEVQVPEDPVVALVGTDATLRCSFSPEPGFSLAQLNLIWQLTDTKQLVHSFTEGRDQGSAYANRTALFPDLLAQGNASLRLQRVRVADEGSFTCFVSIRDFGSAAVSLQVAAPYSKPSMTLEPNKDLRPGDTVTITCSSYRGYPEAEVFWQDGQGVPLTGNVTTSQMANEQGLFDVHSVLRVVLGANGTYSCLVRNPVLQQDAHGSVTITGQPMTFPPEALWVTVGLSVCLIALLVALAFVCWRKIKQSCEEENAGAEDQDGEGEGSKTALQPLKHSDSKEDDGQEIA
# Assay: Affinity determination by surface plasmon resonance (SPR) to 4Ig B7-H3
# Settings: 4Ig B7-H3
# [1] = SPR KD—37° C., 37° C. flow cell temperature
# [2] = SPR KD—25° C., 25° C. flow cell temperature
SMILES,Kd [1] [nM],Kd [2] [nM]
"CC(=O)N[C@@H](CCC(C)C)C(=O)N[C@@H](Cc1ccc(O)cc1)C(=O)N[C@H]1CSSC[C@@H](C(=O)N[C@@H](Cc2cccc3ccccc23)C(=O)N[C@@H](Cc2ccccc2)C(=O)N2CCC[C@H]2C(=O)N[C@H](CCCCNC(=O)CN2CCN(CC(=O)O)CCN(CC(=O)O)CCN(CC(=O)O)CC2)C(N)=O)NC(=O)[C@H](Cc2ccc(O)cc2)NC(=O)[C@H](C(C)C)NC(=O)[C@H](CC(=O)O)NC(=O)[C@H](Cc2ccc(C(=O)O)cc2)NC(=O)[C@H](CC2CCNCC2)NC(=O)CNC(=O)[C@H](C(C)(C)C)NC1=O [compound 315, Ac-hLeu-Y-C-Tbg-G-PipAla-4COOHPhe-D-V-Y-C-5FW-F-Pro-dLys(DOTA)-CONH2] (Ac-[hLeu]YC[Tle]G[Ala(piperidin-4-yl)][Phe(4-COOH)]DVYC[1Nal]FP[dK](DOTA)-NH2; disulfide 3-11)",1 to 10,–
"CC(C)CC[C@H](NC(=O)[C@@H]1CCC(=O)N1)C(=O)N[C@@H](Cc1ccc(O)cc1)C(=O)N[C@H]1CSSC[C@@H](C(=O)N[C@@H](Cc2c[nH]c3ccc(F)cc23)C(=O)N[C@@H](Cc2ccccc2)C(=O)N[C@H](C(=O)N[C@H](CCCCNC(=O)CN2CCN(CC(=O)O)CCN(CC(=O)O)CCN(CC(=O)O)CC2)C(=O)O)C(C)(C)O)NC(=O)[C@H](Cc2ccc(O)cc2)NC(=O)[C@H](C(C)C)NC(=O)[C@H](CC(=O)O)NC(=O)[C@H](CC2CCOCC2)NC(=O)[C@H](CC2CCNCC2)NC(=O)CNC(=O)[C@H](C(C)(C)C)NC1=O [Cpd #477, Pyroglutamate-hLeu-Y-C-Tbg-G-PipAla-ThpA-D-V-Y-C-5FW-F-hydroxyVal-dLys(DOTA)-COOH] ([pGlu][hLeu]YC[Tle]G[Ala(piperidin-4-yl)][Ala(4-THP)]DVYC[Trp(5-F)]F[Val(3-OH)][dK](DOTA)-OH; disulfide 4-12)",1 to 10,–
"CC(=O)N[C@@H](CCC(C)C)C(=O)N[C@@H](Cc1ccc(O)cc1)C(=O)N[C@H]1CSSC[C@@H](C(=O)N[C@@H](Cc2c[nH]c3ccc(F)cc23)C(=O)N[C@@H](Cc2ccccc2)C(=O)N[C@H](C(=O)N[C@H](CCC(=O)O)C(N)=O)C(C)(C)O)NC(=O)[C@H](Cc2ccc(O)cc2)NC(=O)[C@H](C(C)C)NC(=O)[C@H](CC(=O)O)NC(=O)[C@H](C[C@H]2CC[C@@H](O)CC2)NC(=O)[C@H](CCCCNC(=O)CN2CCN(CC(=O)O)CCN(CC(=O)O)CCN(CC(=O)O)CC2)NC(=O)CNC(=O)[C@H](C(C)(C)C)NC1=O [compound 424, Ac-hLeu-Y-C-Tbg-G-Lys(DOTA)-4OHCha(pk1)-D-V-Y-C-5FW-F-hydroxyVal-dGlu-CONH2] (Ac-[hLeu]YC[Tle]GK(DOTA)[X8]DVYC[Trp(5-F)]F[Val(3-OH)][dE]-NH2; disulfide 3-11)",1 to 10,–
"CC(=O)N[C@@H](CCC(C)C)C(=O)N[C@@H](Cc1ccc(O)cc1)C(=O)N[C@H]1CSSC[C@@H](C(=O)N[C@@H](Cc2c[nH]c3ccccc23)C(=O)N[C@@H](Cc2ccccc2)C(=O)N[C@H](C(=O)N[C@H](C)C(N)=O)[C@@H](C)O)NC(=O)[C@H](Cc2ccc(O)cc2)NC(=O)[C@H](C(C)C)NC(=O)[C@H](CC(=O)O)NC(=O)[C@H](Cc2ccc(OCCNC(=O)CN3CCN(CC(=O)O)CCN(CC(=O)O)CCN(CC(=O)O)CC3)cc2)NC(=O)[C@H](CCCCN)NC(=O)CNC(=O)[C@H](C(C)C)NC1=O [compound 136, Ac-hLeu-Y-C-V-G-K-AEF(DOTA)-D-V-Y-C-W-F-Thr-dAla-CONH2] (Ac-[hLeu]YCVGK[AEF](DOTA)DVYCWFT[dA]-NH2; disulfide 3-11)",< 1,–
"CC(=O)N[C@@H](CCC(C)C)C(=O)N[C@@H](Cc1ccc(O)cc1)C(=O)N[C@H]1CSSC[C@@H](C(=O)N[C@@H](Cc2c[nH]c3ccc(F)cc23)C(=O)N[C@@H](Cc2ccccc2)C(=O)N[C@H](C(=O)N[C@H](CCCCNC(=O)CN2CCN(CC(=O)O)CCN(CC(=O)O)CCN(CC(=O)O)CC2)C(N)=O)[C@@H](C)O)NC(=O)[C@H](Cc2ccc(F)cc2)NC(=O)[C@H](C(C)C)NC(=O)[C@H](CC(=O)O)NC(=O)[C@H](Cc2ccc(O)cc2)NC(=O)[C@H](CCCCN)NC(=O)CNC(=O)[C@H](C(C)C)NC1=O [compound 172, Ac-hLeu-Y-C-V-G-K-Y-D-V-4FPhe-C-5FW-F-Thr-dLys(DOTA)-CONH2] (Ac-[hLeu]YCVGKYDV[Phe(4-F)]C[Trp(5-F)]FT[dK](DOTA)-NH2; disulfide 3-11)",–,1 to 10
"CC(=O)N[C@@H](CCC(C)C)C(=O)N[C@@H](Cc1ccc(O)cc1)C(=O)N[C@H]1CSSC[C@@H](C(=O)N[C@@H](Cc2c[nH]c3ccccc23)C(=O)N[C@@H](Cc2ccccc2)C(=O)N[C@H](C(=O)N[C@H](CCCCNC(=O)CN2CCN(CC(=O)O)CCN(CC(=O)O)CCN(CC(=O)O)CC2)C(N)=O)[C@@H](C)O)NC(=O)[C@H](Cc2ccc(O)cc2)NC(=O)[C@H](C(C)C)NC(=O)[C@H](CC(=O)O)NC(=O)[C@H](Cc2ccc(C(=O)O)cc2)NC(=O)[C@H](CCCCN)NC(=O)CNC(=O)[C@H](C(C)(C)C)NC1=O [compound 139, Ac-hLeu-Y-C-Tbg-G-K-4COOHPhe-D-V-Y-C-W-F-Thr-dLys(DOTA)-CONH2] (Ac-[hLeu]YC[Tle]GK[Phe(4-COOH)]DVYCWFT[dK](DOTA)-NH2; disulfide 3-11)",–,< 1
"CC(=O)N[C@@H](CCC(C)C)C(=O)N[C@@H](Cc1ccc(F)cc1)C(=O)N[C@H]1CSSC[C@@H](C(=O)N[C@@H](Cc2c[nH]c3ccc(F)cc23)C(=O)N[C@@H](Cc2ccccc2)C(=O)N[C@H](C(=O)N[C@H](CCCCNC(=O)CN2CCN(CC(=O)O)CCN(CC(=O)O)CCN(CC(=O)O)CC2)C(N)=O)[C@@H](C)O)NC(=O)[C@H](Cc2ccc(O)cc2)NC(=O)[C@H](C(C)C)NC(=O)[C@H](CC(=O)O)NC(=O)[C@H](Cc2ccc(O)cc2)NC(=O)[C@H](CCCCN)NC(=O)CNC(=O)[C@H](C(C)C)NC1=O [compound 192, Ac-hLeu-4FPhe-C-V-G-K-Y-D-V-Y-C-5FW-F-Thr-dLys(DOTA)-CONH2] (Ac-[hLeu][Phe(4-F)]CVGKYDVYC[Trp(5-F)]FT[dK](DOTA)-NH2; disulfide 3-11)",–,1 to 10
"CCCC[C@H](NC(C)=O)C(=O)N[C@@H](Cc1ccc(O)cc1)C(=O)N[C@H]1CSSC[C@@H](C(=O)N[C@@H](Cc2c[nH]c3ccccc23)C(=O)N[C@@H](Cc2ccccc2)C(=O)N[C@@H](CCCCN)C(=O)N[C@H](CCCCNC(=O)CN2CCN(CC(=O)O)CCN(CC(=O)O)CCN(CC(=O)O)CC2)C(N)=O)NC(=O)[C@H](Cc2ccc(O)cc2)NC(=O)[C@H](C(C)C)NC(=O)[C@H](CC(=O)O)NC(=O)[C@H](Cc2ccc(O)cc2)NC(=O)[C@H](CCCCN)NC(=O)CNC(=O)[C@H](C(C)C)NC1=O [compound 86, Ac-Nle-Y-C-V-G-K-Y-D-V-Y-C-W-F-Lys-dLys(DOTA)-CONH2] (Ac-[Nle]YCVGKYDVYCWFK[dK](DOTA)-NH2; disulfide 3-11)",–,10 to 100
"CC(=O)N[C@@H](CCC(C)C)C(=O)N[C@@H](Cc1ccc(O)cc1)C(=O)N[C@H]1CSSC[C@@H](C(=O)N[C@@H](Cc2c[nH]c3ccccc23)C(=O)N[C@@H](Cc2ccccc2)C(=O)N[C@H](C(=O)N[C@H](CCCCNC(=O)CN2CCN(CC(=O)O)CCN(CC(=O)O)CCN(CC(=O)O)CC2)C(N)=O)C(C)(C)O)NC(=O)[C@H](Cc2ccc(O)cc2)NC(=O)[C@H](C(C)C)NC(=O)[C@H](CC(=O)O)NC(=O)[C@H](Cc2ccc(O)cc2)NC(=O)[C@H](CCCCN)NC(=O)CNC(=O)[C@H](C(C)C)NC1=O [compound 149, Ac-hLeu-Y-C-V-G-K-Y-D-V-Y-C-W-F-hydroxyVal-dLys(DOTA)-CONH2] (Ac-[hLeu]YCVGKYDVYCWF[Val(3-OH)][dK](DOTA)-NH2; disulfide 3-11)",–,< 1
"CC(C)CC[C@H](NC(=O)[C@@H]1CCC(=O)N1)C(=O)N[C@@H](Cc1ccc(O)cc1)C(=O)N[C@H]1CSSC[C@@H](C(=O)N[C@@H](Cc2c[nH]c3ccc(F)cc23)C(=O)N[C@H](C(=O)N[C@H](C(=O)N[C@H](CCCCNC(=O)CN2CCN(CC(=O)O)CCN(CC(=O)O)CCN(CC(=O)O)CC2)C(=O)O)C(C)(C)O)[C@@H](C)c2ccccc2)NC(=O)[C@H](Cc2ccc(NC(N)=O)cc2)NC(=O)[C@H](C(C)C)NC(=O)[C@H](CC(=O)O)NC(=O)[C@H](CC2CCOCC2)NC(=O)[C@H](CC2CCNCC2)NC(=O)CNC(=O)[C@H](C(C)(C)C)NC1=O [compound 504, Pyroglutamate-hLeu-Y-C-Tbg-G-PipAla-ThpA-D-V-Aph(Cbm)-C-5FW-[(2S, 3S)beta-Me-Phe]-hydroxyVal-dLys(DOTA)-COOH] ([pGlu][hLeu]YC[Tle]G[Ala(piperidin-4-yl)][Ala(4-THP)]DV[Phe(4-NHCONH2)]C[Trp(5-F)][X1][Val(3-OH)][dK](DOTA)-OH; disulfide 4-12)",< 1,–
"CC(=O)N[C@@H](CCC(C)C)C(=O)N[C@@H](Cc1ccc(O)cc1)C(=O)N[C@H]1CSSC[C@@H](C(=O)N[C@@H](Cc2c[nH]c3ccc(F)cc23)C(=O)N[C@H](C(=O)N[C@H](C(=O)N[C@H](CCCCNC(=O)[C@H](CCC(=O)O)NC(=O)CN2CCN(CC(=O)O)CCN(CC(=O)O)CCN(CC(=O)O)CC2)C(=O)O)C(C)(C)O)[C@@H](C)c2ccccc2)NC(=O)[C@H](Cc2ccc(O)cc2)NC(=O)[C@H](C(C)C)NC(=O)[C@H](CC(=O)O)NC(=O)[C@H](CC2CCOCC2)NC(=O)[C@H](CC2CCNCC2)NC(=O)CNC(=O)[C@H](C(C)(C)C)NC1=O [compound 498, Ac-hLeu-Y-C-Tbg-G-PipAla-ThpA-D-V-Y-C-5FW-[(2S, 3S)beta-Me-Phe]-hydroxyVal-dLys(Glu-DOTA)-COOH] (Ac-[hLeu]YC[Tle]G[Ala(piperidin-4-yl)][Ala(4-THP)]DVYC[Trp(5-F)][X1][Val(3-OH)][dK]([Glu-DOTA])-OH; disulfide 3-11)",< 1,–
